Measured values from paper PMC9374667 (Communications Biology, 2022).
Where “and” joins values, the source holds several entries; their conditions need not be identical. Identical values can stand only once. Like-named read-outs stand apart in the source and are kept apart here.

Experiments:
IKKε [1] = molecular target: T1, IKKε (Mus musculus, UniProt Q9R0T8); assay: 3T3-L1 adipocytes transfected with IKKε plasmid (western blotting, cAMP, glycerol, ISO); format: cell-based, Murine; parameters: endogenous in cells; host or cells: differentiated 3T3-L1 adipocytes; IKKε (western blotting, Figure 8h) / UCP1 (western blotting, Figure 8i) / UCP1 (western blotting, Figure 8j): scale not given here; cAMP levels (Figure 8k) / Glycerol release (Figure 8l): unit not given here
T1 sequence (Q9R0T8 1-717): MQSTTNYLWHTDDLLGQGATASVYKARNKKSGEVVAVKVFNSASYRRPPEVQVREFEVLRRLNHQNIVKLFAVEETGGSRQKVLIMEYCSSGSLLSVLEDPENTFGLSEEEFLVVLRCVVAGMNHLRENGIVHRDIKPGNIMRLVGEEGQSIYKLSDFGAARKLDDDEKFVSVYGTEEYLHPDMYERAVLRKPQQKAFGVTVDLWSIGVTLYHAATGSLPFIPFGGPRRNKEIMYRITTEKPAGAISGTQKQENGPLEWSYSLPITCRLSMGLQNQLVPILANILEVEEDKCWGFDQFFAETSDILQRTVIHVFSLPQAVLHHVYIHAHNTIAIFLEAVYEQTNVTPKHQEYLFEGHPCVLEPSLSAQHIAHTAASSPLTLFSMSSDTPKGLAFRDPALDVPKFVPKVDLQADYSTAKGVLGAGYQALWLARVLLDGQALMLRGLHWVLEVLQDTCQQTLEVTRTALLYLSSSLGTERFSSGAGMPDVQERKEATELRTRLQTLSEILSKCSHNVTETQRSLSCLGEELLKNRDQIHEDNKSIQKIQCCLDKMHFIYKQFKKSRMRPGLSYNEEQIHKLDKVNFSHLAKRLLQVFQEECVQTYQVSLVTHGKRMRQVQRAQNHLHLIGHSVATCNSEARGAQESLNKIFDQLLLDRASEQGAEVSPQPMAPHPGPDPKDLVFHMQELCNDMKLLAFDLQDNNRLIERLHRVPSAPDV
Experimental: Small interference RNA transfection (siRNA) was performed using 4 μM TBK1 siRNA (siTBK1) or 4 μM […]ε) or corresponding NC siRNA (siNC). The epididymal adipose tissue was dissected, the fresh adipose tissue was weighed and rapidly rinsed with PBS. The adipose tissue was cut and incubated with isoproterenol (10 μM) for 2 h, and homogenized in a cold cleavage buffer to prepare the adipose tissue homogenate. Then the homogenate was centrifuged at 12,000 × g at 4 °C for 15 min, and the supernatant was collected. […] Then the cells were lysed in a petri dish, scraped off, and centrifuged at 12,000 × g at 4 °C for 15 min before the supernatant was collected. […] And concentrations were further standardized according to protein concentration. The adipose tissue or 3T3-L1 adipocytes were homogenized by ultrasound in an ice-cold RIPA lysis buffer containing 1% PMSF and centrifuged at 12,000 × g at 4°C for 15 min to collect the supernatant. The BCA protein assay kit (Beyotime, Shanghai, China) was used to detect the total protein concentration. Proteins (20-30 μg) of the sample were separated by 10% SDS-PAGE gel and transferred onto polyvinylidene difluoride (PVDF) membranes. Then the PVDF membranes were blocked in 5% skim milk powder in TBS containing 1% Tween-20 (TBST) for 2 h at room temperature and washed with TBST for 3 times. […] After washing, the membranes were incubated with horseradish peroxidase-conjugated secondary antibodies (in 5% skim milk powder) for 1 h at room temperature. Finally, the membranes were treated with enhanced chemiluminescence agents (Tanon, Shanghai, China) and the signals were monitored using the Tanon 5200 multi chemiluminescent imaging system (Tanon, Shanghai, China).

IKKε [2] = molecular target: T1, IKKε; assay: IKKε activity assay in eWAT; format: in vivo, mice; parameters: The adipose tissue was ultrasound-crushed in PBS buffer solution (1:9 w/v) to prepare the tissue homogenate; from tissue; host or cells: epididymal white adipose tissue (eWAT) and brown adipose tissue (BAT) of C57BLKS WT and db/db mice; conditions: for the expression of IKKε in eWAT of db/db mice: Figure 6b, individual values
Experimental: The adipose tissue was ultrasound-crushed in PBS buffer solution (1:9 w/v) to prepare the tissue homogenate. The tissue homogenate was centrifuged at 5000 × g for 10 min, and the supernatant was taken for detection. Briefly, samples or standards were added to the microplates pre-coated with IKKε antibody or TBK1 antibody. Then horseradish peroxidase (HRP) labeled antibody was added and incubated at 37 °C for 60 min. After thorough washing, the 3,3′,5,5′-tetramethylbenzidine (TMB) substrate was used for color development, and the absorbance (OD value) was determined at 450 nm.

[3] = 3T3-L1 adipocytes transfected with IKKε plasmid, 24 h of BJ treatment

In the case of CC(C)Cc1ccc(C(C)C(=O)[O-])cc1.COc1ccc2cc3[n+](cc2c1OC)CCc1cc2c(cc1-3)OCO2.O.O.O.O [BJ, berberine-ibuprofen], the “IKKε (western blotting, Figure 8h)” value (IKKε [1]) was 0.3064 and 0.3337 and 0.413, the “IKKε (western blotting, Figure 8h)” value (IKKε [1]; 3μg IKKε+10μM BJ) was 0.3573 and 0.3516 and 0.3871 and the “UCP1 (western blotting, Figure 8i)” value (IKKε [1]; 3μg IKKε+10μM BJ) was 0.8819 and 0.7296 and 0.665. For the same molecule, the “UCP1 (western blotting, Figure 8i)” value (IKKε [1]; 10μM BJ) was 0.7179 and 0.7672 and 0.7892, the IKKε protein level (IKKε [1]; [3]) was “significantly decreased” and the UCP1 protein level (IKKε [1]; [3]) was “significantly increased”. The “Glycerol release (Figure 8l)” value (IKKε [1]; BJ) was 86.9484 and 84.4172 and 92.0109, the “UCP1 (western blotting, Figure 8j)” value (IKKε [1]; BJ) was 0.7729 and 0.7093 and 0.8167 and the “cAMP levels (Figure 8k)” value (IKKε [1]; BJ) was 0.1832 and 0.1783 and 0.1808. For the same molecule, the “Glycerol release (Figure 8l)” value (IKKε [1]; BJ+IKKε) was 68.3861 and 70.0736 and 61.6362, the “UCP1 (western blotting, Figure 8j)” value (IKKε [1]; BJ+IKKε) was 0.4841 and 0.4628 and 0.4991 and the “cAMP levels (Figure 8k)” value (IKKε [1]; BJ+IKKε) was 0.1738 and 0.178 and 0.1687. The “Glycerol release (Figure 8l)” value (IKKε [1]; ISO+BJ) was 156.135 and 153.604 and 151.073, the “UCP1 (western blotting, Figure 8j)” value (IKKε [1]; ISO+BJ) was 0.9653 and 0.8916 and 1.268 and the “cAMP levels (Figure 8k)” value (IKKε [1]; ISO+BJ) was 0.3323 and 0.3162 and 0.3269. For the same molecule, the “Glycerol release (Figure 8l)” value (IKKε [1]; ISO+BJ+IKKε) was 123.229 and 124.917 and 128.292, the “UCP1 (western blotting, Figure 8j)” value (IKKε [1]; ISO+BJ+IKKε) was 0.6833 and 0.6687 and 0.7939 and the “cAMP levels (Figure 8k)” value (IKKε [1]; ISO+BJ+IKKε) was 0.2266 and 0.2216 and 0.2337. The “Inhibition of ISO efficacy (UCP1, glycerol release, cAMP) by IKKε overexpression” value (IKKε [1]; transfected 3T3-L1 adipocytes, 10 µM BJ) was “ameliorated”, the “the expression of IKKε in eWAT of db/db mice” value (IKKε [2]; db/db+BJ 75mg/kg) was 0.731 U/g and 0.653 U/g and 0.634 U/g and 0.668 U/g and 0.673 U/g and 0.708 U/g and the “the expression of IKKε in eWAT of db/db mice” value (IKKε [2]; db/db+BJ 150mg/kg) was 0.443 U/g and 0.517 U/g and 0.416 U/g and 0.438 U/g and 0.466 U/g and 0.49 U/g. The “IKKε kinase activity in eWAT” value (IKKε [2]; db/db mice, both doses of BJ (75 and 150 mg/kg)) was “significantly reduced”.
